{"source": "patent US4835258A", "about": "“Conjugation of aromatic amines or nitro-containing compounds with proteins or polypeptides by photoirradiation of the azide derivatives with ultraviolet light in order to produce antibodies against the haptens” (Northwestsern University, priority 1986, dated 1989)", "key": {"anti-ANEC-BSA serum": {"system": "anti-ANEC-BSA serum", "test": "Inhibition ELISA, anti-ANEC-BSA serum on ANEC-BSA coated wells", "format": "binding, rabbit", "conditions": "anti ANEC-BSA sera"}, "[1]": {"test": "Solubility in aqueous buffer", "format": "physicochemical", "conditions": "insoluble above this concentration, read-out: solubility limit in aqueous buffer"}}, "data": [{"smiles": "CCn1c2ccccc2c2cc(N)ccc21", "note": "[3-amino-N-ethyl-carbazole, 3-amino-N-ethylcarbazole]", "values": [{"measurement": "IC50", "setting": "anti-ANEC-BSA serum; free hapten as inhibitor, read-out: concentration giving 50% inhibition of antibody binding", "value": 10, "unit": "µM"}, {"measurement": "inhibition of antibody binding", "setting": "anti-ANEC-BSA serum; free hapten at 1 mM", "value": 70, "unit": "%"}, {"measurement": "solubility", "setting": "[1]", "value": "≤ 1000", "unit": "µM"}]}]}
